In patent US12545892B2, “Application of TGF-B inhibitor in inducing neural stem cells and organoid formation” (IREGENE THERAPEUTICS, CO., LTD., priority 2020, dated 2026):

What was measured:
[1] = tested on: Human pluripotent stem cells; experiment: Cyquant assay of cell viability during neural induction; assay type: cell-based; conditions: samples on days 1, 5, 10, 15 and 20; control LSB method; FIG. 1c
Experimental: (§1) The Cyquant assay was used to perform the quantitative detection of cell viability, thus investigating the effect of LY2157299 on the physiological state of the cells during long-term culture of the cells; Among them, the LSB method was used as the control group. 96-well light-tight cell culture plates were coated; after the coating was complete, cells were seeded separately at 5×10^4 cell number per well and three sets of parallel replicates were set (the average of three sets was calculated as data) to repeat the procedure of example 2.1. Wherein, the culture procedures described previously were incubated at 37° C. with 5% CO2. Samples were taken on days 1, 5, 10, 15 and 20 for cell viability assay using CyQuant Kit (Invitrogen, cat. No: X12223). The aforementioned assay was operated according to the instructions with a Spectramax i3 Multi-Mode Microplate Reader (VWR, model number: ID3-STD) for data reading.

[2] = tested on: neural stem cells obtained by the LY inducing method; experiment: Directed differentiation of induced neural stem cells into neurons (immunofluorescence); assay type: cell-based, human
Experimental: The neural stem cells obtained by the LY inducing method in Example 2 were subjected to directed differentiation in NouvNeu001 basal medium. For neuronal differentiation, use 50 μg/mL polylysine (SIGMA ALDRICH, Cat. No.: P6407) to coat a 6-well culture plate, and place the plate in a 37° C. incubator and incubate for more than 3 hours until cells are seeded.
The neural stem cells obtained in example 2 were seeded at a density of 1×10^5 the ratio per flask was inoculated in T25 flasks, and 3 μM CHIR99021 (Selleck, Cat. No.: S2924), 10 μM SU5402 (Tocris, Cat. No.: 3300/1), 10 μM DAPT (Selleck, Cat. No.: S2215) were added to NouvNeu001 basal medium. Fresh medium was replaced every 3 days until day 21. The above cultures were incubated at 37° C. with 5% CO2.
The neural stem cells obtained in example 2 were seeded at a density of 1×10^5 the ratio per flask was inoculated in T25 flasks, and 1 μM Purmorphamine (Sellek, Cat. No.: S3042) and 1 ng/mL TGF-β3 (Novoprotein, Cat. No.: CJ44) were added to NouvNeu001 basal medium to culture neural stem cells. Fresh medium was replaced every 3 days until day 30. The above cultures were incubated at 37° C. with 5% CO2.
The neural stem cells obtained in example 2 were seeded at a density of 1×10^5 the ratio per flask was inoculated in T25 flasks, and 0.5 μM retinyl acetate (SIGMA ALDRICH, Cat. No.: R7782) was added to NouvNeu001 basal medium. Fresh medium was replaced every 3 days until day 24. The above cultures were incubated at 37° C. with 5% CO2.
After induction and differentiation, the cells were harvested and identified by immunofluorescence staining: cells were fixed with 4% paraformaldehyde at room temperature for 40 minutes, washed twice with DPBS buffer; then permeabilized with 0.1% Triton X-100 for 5 minutes, and buffered with DPBS The cells were then washed twice with DPBS buffer containing 10% horse serum and 0.1% Triton X-100 at 4° C. overnight; the cells were washed with DPBS buffer and then washed with 2% horse serum and 0.1% Triton X-100. […]

[3] = tested on: Sox2, Pax6, Nestin, CASP3; experiment: Q-PCR of marker genes during induction from pluripotent stem cells to neural stem cells; assay type: cell-based, human; conditions: different concentrations
Experimental: Transcriptional changes of different marker genes during induction from pluripotent stem cells to neural stem cells were detected by using Q-PCR. The induced pluripotent stem cells used in this example are neural stem cells derived by LY inducing method and LSB inducing method, respectively. Neural stem cells were prepared as described previously using Rneasy Mini or Micro Kit (QIAGEN) for total RNA extraction, in which […] RNA was used to synthesize cDNA with superscript III First-Strand Synthesis System (Invitrogen).
All the above data were analyzed with the delta-Ct method. Each set of trials was tested using three sets of replicates, and variance statistics were performed.
(§2) From the above results, it is known that the differentiation is not complete under the low concentration condition, and many different types of cells can be seen. However, neural stem cells obtained in high concentration condition are easily differentiated and cell stress appears.

[4] = tested on: MHC associated genes CD4, HLA-A, HLA-C, hla-f, and HLA-DPB1; experiment: Q-PCR detection of MHC genes of induced neural stem cells; assay type: cell-based; conditions: compared with human pluripotent stem cells; FIG. 6
Source text: The major histocompatibility complex (MHC) genes of neural stem cells induced by LY2157299 was detected by Q-PCR method, and pluripotent stem cells (iPS) were used as control.

[5] = tested on: human induced pluripotent stem cells; experiment: Brain organoid culture from induced pluripotent stem cells (formation, diameter); assay type: cell-based; conditions: 12.5 μM in basal medium to day 10, culture to day 120
Experimental: Organoid culture was performed with human induced pluripotent stem cells. Organoid inducing medium was formulated as follows: NouvNeu basal medium supplemented with 12.5 μM LY2157299. Induced pluripotent stem cells were digested to single cells by Accutase, seeded in U-bottom-ultra-low attachment 96-well plates at a ratio of 9000 cells/[…] of brain organoid inducing medium per well. 10 μM ROCK inhibitor Y-27632 (Selleck, S1049) was added, and the cells were placed in a 37° C., 5% carbon dioxide cell incubator for 24 hours (Panasonic, model: MCO-18AC). Y-27632-free fresh organoid inducing medium was changed the following day until day 10. Day 10 the organoids were transferred to ultra-low-attachment 6-well plates and the medium was changed to NouvNeu001 basal medium supplemented with 2% B27 cell culture additive. The culture was conducted at 37° C. in a 5% CO2 cell culture incubator on a horizontal rotator at 80 rpm until day 120.
The control experiment was carried out according to the published method (Clair B et. al, Nat Methods. 2019, November; 16 (11): 1169-1175). N2B27 was used as the basic medium for organ like culture. […]
Organoids were photographed by Leica Dmi8. The brain organoids were photographed and their diameters were measured. […]

[6] = tested on: Human pluripotent stem cells; experiment: Chemical induction of neural stem cells from pluripotent stem cells (neural rosette formation, cell morphology); assay type: cell-based
Source text: Human pluripotent stem cells include embryonic pluripotent stem cells, such as the H9 cell line and human induced pluripotent stem cells. Wherein, the human induced pluripotent stem cells used in the present invention are obtained from the reprogramming of CD34^+ cells, which refers to “reprogramming culture medium and reprogramming induced pluripotent stem cell culture method” (the method in the patent ZL201910050800.7).
Human pluripotent stem cells are used to coat T25 cell culture flasks with Matrigel ([…] Technologies), and then placed in a 37° C. incubator for more than one hour after plating. Follow 1×10^6 Cells were seeded in T25 flasks for expansion and passage.
For neural induction, use 50 μg/mL poly-lysine (SIGMA, Cat. No.: P6407) to coat a 6-well culture plate, and incubate at 37° C. for more than 3 hours after plating; then use 5 μg/mL Laminin (SIGMA ALDRICH, Cat. No.: 12020) for further coat, and then place in a 37° C. incubator to incubate for more than 3 hours. When pluripotent stem cells reached 70% coverage, they were digested with EDTA at 37° C. for 5 min, and DMEM was used to stop cell digestion. Cells are washed and centrifuged at 2×10^5 the proportions of each flask and are re-seeded in T25 plates. Neural induction is performed using the medium of the present invention in combination with the neural inducing compound, and the medium is changed every day until the neural stem cell rosette is formed. […] Therefore, the single-molecule inducing method provided by this method can induce pluripotent stem cells to form neural rosette structures more efficiently and uniformly.
as §2

[7] = tested on: HLA-DR; experiment: Flow cytometry detection of HLA-DR antigens of induced neural stem cells; assay type: cell-based, human; conditions: FIG. 7
Experimental: The HLA-DR antigens of neural stem cells induced by LY2157299 were detected by flow cytometry. HLA-DR is an MHC class II molecule whose expression is critical for the antigen-presenting function of cells and plays a key role in adoptive immune responses. The induced neural stem cells obtained in Example 2 were digested with EDTA, washed with DPBS, centrifuged to remove the supernatant, and 10^6 Cells were resuspended in 100 μL of diluted primary antibody (CD45 PerCP, Abeam, Cat. No. ab157309; HLA-DR FITC, CST, Cat. No. 54126), incubated on ice for 1 hour in the dark, centrifuged to remove supernatant, and cells were resuspended in 500 μL of antibody dilution buffer (CST) and analyzed on a flow cytometer. Samples incubated without primary antibody were used as controls. The results are shown in FIG. 7, FIG. 7a is a negative control, FIG. 7b is the HLA-DR detection result of the neural stem cells obtained by LY2157299 induction.

[8] = Freezing point osmometer, osmolality of the culture system; assay type: physicochemical; conditions: sodium chloride concentration 1 μg/mL; FIG. 2a
Source text: A fully automated freezing point osmometer (FM-8P, Shanghai Yida Instruments Co., Ltd.) was used to detect the effects of different concentrations of sodium chloride on the osmolality of the culture system, and the specific operations were enrolled in the product instructions (FM-8P, Shanghai Yida Instruments Co., Ltd.). The test results are detailed in FIG. 2a. The results illustrate a linear increase with the concentration of sodium chloride and the osmotic pressure of the culture system. However, when the concentration reached 1 μg/mL, the osmolality of the culture system already exceeded the cell culture limit of 320 mOsm/kg.

[9] = tested on: Human pluripotent stem cells; experiment: CyQuant assay of medium components (cell viability in long-term culture); assay type: cell-based; conditions: different concentrations, FIG. 2b-2c
Experimental: as §1

Cc1cccc(-c2nn3c(c2-c2ccnc4ccc(C(N)=O)cc24)CCC3)n1 [LY2157299, 4-(2-(6-methylpyridin-2-yl)-5,6-dihydro-4h-pyrrolo[1,2-b]pyrazol-3-yl) quinoline-6-carboxamide]
number of neural cells (cell viability, CyQuant) [1]: induced more number of neural cells compared with LSB method | nociceptor neuron differentiation of induced neural stem cells, marker expression ([2]; CHIR99021, SU5402, DAPT until day 21, FIG. 5a-5c): express the nociceptor neuron specific marker SCNI11A | dopaminergic neuron differentiation of induced neural stem cells, marker expression ([2]; Purmorphamine, TGF-β3 until day 30, FIG. 5d-5f): can express mature dopaminergic neuron specific marker Pitx3 | photoreceptor neuron differentiation of induced neural stem cells, marker expression ([2]; retinyl acetate until day 24, FIG. 5g-5i): can express the photoreceptor neuron specific marker OPSIN | regulation of Pax6 expression by concentration (Q-PCR) ([3]; FIG. 4f): positively correlated with Pax6 expression | regulation of apoptosis gene CASP3 by concentration (Q-PCR) ([3]; FIG. 4g): positively correlated with apoptosis | expression of MHC associated genes in induced neural stem cells (Q-PCR) [4]: expressed at extremely low levels | generation of cerebral organoids [5]: can induce the generation of cerebral organoids | cell population obtained by chemical induction ([6]; 12.5 μM in NouvNeu001 basal medium, FIG. 4d): resulted in a uniform cell population | cell population obtained by chemical induction ([6]; 25 μM in NouvNeu001 basal medium, FIG. 4e): a mixed population of neural cells was obtained | cell stress during chemical induction ([6]; 25 μM, FIG. 4e): cells showed signs of stress with intracellular vacuoles | cell population obtained by chemical induction ([6]; in NouvNeu001 basal medium, FIG. 4c): a mixed population of cells including neural cells was obtained | HLA-DR antigen expression of induced neural stem cells (flow cytometry) [7]: do not express HLA-DR

[Cl-].[Na+] [sodium chloride]
osmolality of the culture system [8]: > 320 mOsm/kg

recombinant insulin: component of the basal medium, screened at different concentrations
effect of concentration on cell proliferation (CyQuant) [9]: positively correlated with the rate of cell proliferation
